From patent publication US11884676B2, “Substituted pyrimido[1,2-b]pyridazines as positive allosteric modulators of the muscarinic acetylcholine receptor M4” (Vanderbilt University, priority 2020, dated 2024) come the findings set out here.

This experiment deals with T1, Human M4 (Homo sapiens, UniProt P08173).
T1 construct: expressed in transfected cells
T1 sequence (P08173 1-479): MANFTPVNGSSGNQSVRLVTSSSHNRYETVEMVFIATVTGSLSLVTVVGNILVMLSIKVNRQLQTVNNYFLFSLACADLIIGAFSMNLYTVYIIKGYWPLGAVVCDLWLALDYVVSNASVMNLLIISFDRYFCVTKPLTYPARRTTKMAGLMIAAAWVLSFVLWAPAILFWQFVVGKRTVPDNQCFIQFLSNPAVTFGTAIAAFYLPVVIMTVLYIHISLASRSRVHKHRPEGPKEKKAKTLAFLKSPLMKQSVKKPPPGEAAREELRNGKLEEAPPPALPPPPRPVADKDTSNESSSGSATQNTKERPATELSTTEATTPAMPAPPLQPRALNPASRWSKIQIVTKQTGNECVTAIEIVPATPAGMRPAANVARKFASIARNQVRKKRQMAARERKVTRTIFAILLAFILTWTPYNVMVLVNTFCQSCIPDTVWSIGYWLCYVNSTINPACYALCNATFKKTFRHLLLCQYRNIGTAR
The experiment in a line: mAChR M4 cell-based functional assay (calcium flux, PAM mode). Conditions: hM4-Gqi5 CHO-K1 cells; for Emax at 30 µM: CHO-K1, % ACh maximum at 30 μM; for EC50: concentration-dependent increase in the EC20 acetylcholine response. Here is the method: Human and rat M4 cDNAs, along with the chimeric G protein Gqi5, were transfected into Chinese hamster ovary (CHO-K1) cells purchased from the American Type Culture Collection using Lipofectamine2000. hM4-Gqi5 cells were grown in Ham's F-12 medium containing 10% heat-inactivated fetal bovine serum (FBS), 20 mM HEPES, 50 μg/mL G418 sulfate, and 500 μg/mL Hygromycin B. rM4-Gqi5 cells were grown in DMEM containing 10% heat-inactivated FBS, 20 mM HEPES, 400 μg/mL G418 sulfate, and 500 μg/mL Hygromycin B.
For high throughput measurement of agonist-evoked increases in intracellular calcium, CHO-K1 cells stably expressing muscarinic receptors were plated in growth medium lacking G418 and hygromycin at 15,000 cells/20 μL/well in Greiner 384-well black-walled, tissue culture (TC)-treated, clear-bottom plates (VWR). Cells were incubated overnight at 37° C. and 5% CO2. The next day, cells were washed using an ELX 405 (BioTek) with assay buffer; the final volume was then aspirated to 20 μL. Next, 20 μL of a 2.3 μM stock of Fluo-4/acetoxymethyl ester (Invitrogen, Carlsbad, CA), prepared as a 2.3 mM stock in DMSO and mixed in a 1:1 ratio with 10% (w/v) Pluronic F-127 and diluted in assay buffer, was added to the wells and the cell plates were incubated for 50 min at 37° C. and 5% CO2. Dye was removed by washing with the ELX 405 and the final volume was aspirated to 20 μL. Compound master plates were formatted in an 11 point concentration-response curve (CRC) format (1:3 dilutions) in 100% DMSO with a starting concentration of 10 mM using a BRAVO liquid handler (Agilent). Test compound CRCs were then transferred to daughter plates (240 nL) using the Echo acoustic plate reformatter (Labcyte, Sunnyvale, CA) and then diluted into assay buffer (40 μL) to a 2× stock using a Thermo Fisher Combi (Thermo Fisher Scientific, Waltham, MA).
Calcium flux was measured using the Functional Drug Screening System (FDSS) 6000 or 7000 (Hamamatsu Corporation, Tokyo, Japan) as an increase in the fluorescent static ratio. Compounds were applied to cells (20 μL, 2×) using the automated system of the FDSS at 2-4 seconds into the protocol and the data were collected at 1 Hz. At 144 seconds, 10 μL of an EC20 concentration of the muscarinic receptor agonist acetylcholine was added (5×), followed by the addition of 12 μL of an EC80 concentration of acetylcholine at the 230 second time point (5×). Agonist activity was analyzed as a concentration-dependent increase in calcium mobilization upon compound addition. Positive allosteric modulator activity was analyzed as a concentration-dependent increase in the EC20 acetylcholine response. Antagonist activity was analyzed as a concentration-dependent decrease in the EC80 acetylcholine response. Concentration-response curves were generated using a four-parameter logistical equation in XLFit curve fitting software (IDBS, Bridgewater, NJ) for Excel (Microsoft, Redmond, WA) or Prism (GraphPad Software, Inc., San Diego, CA).
Compounds were synthesized as described above. Activity (EC50 and Emax) was determined in the mAChR M4 cell-based functional assay as described above and the data are shown in Table 2. The compound number corresponds to the compound numbers used in Examples 1 to 11 and Tables 1.
Background: Calcium assays in cells follow changes in intracellular calcium, usually with a dye or a luminescent sensor.

Take `Cc1cc(=O)n2nc(N3CCC(Oc4ccc5c(c4)CCN(C)C5=O)CC3)c(C)cc2n1` [Compound 74, 2,8-dimethyl-7-(4-((2-methyl-1-oxo-1,2,3,4-tetrahydroisoquinolin-6-yl)oxy)piperidin-1-yl)-4H-pyrimido[1,2-b]pyridazin-4-one]: the Emax (usually the size of the effect at its maximum, as opposed to the concentration needed) at 30 µM is 84% and the concentration for a half-maximal effect (EC50) (as a rule, the concentration giving half of the maximal effect) turned out to be 2360 nM.
`Cc1cc2nccc(=O)n2nc1N1CC[C@@H](Oc2ccc3c(c2)CCO3)[C@H](F)C1` [Compound 56, 7-((3R,4R)-4-((2,3-dihydrobenzofuran-5-yl)oxy)-3-fluoropiperidin-1-yl)-8-methyl-4H-pyrimido[1,2-b]pyridazin-4-one]: the Emax at 30 µM is 80% and the EC50 was 206 nM.
The matching figures for `[2H]C1([2H])Oc2ccc(O[C@H]3CCN(c4nn5c(=O)ccnc5c(C)c4C)C[C@@H]3F)cc2OC1([2H])[2H]` [Compound 117, 7-((3S,4S)-4-((2,3-dihydrobenzo[b][1,4]dioxin-6-yl-2,2,3,3-d4)oxy)-3-fluoropiperidin-1-yl)-8,9-dimethyl-4H-pyrimido[1,2-b]pyridazin-4-one]: 93% and 326 nM.
The matching figures for `Cc1c(N2CCC(Oc3ccc(C(F)(F)F)cc3)CC2)nn2c(=O)ccnc2c1C` [Compound 80, 8,9-dimethyl-7-(4-(4-(trifluoromethyl)phenoxy)piperidin-1-yl)-4H-pyrimido[1,2-b]pyridazin-4-one]: 76% and 2180 nM.
Taken in the same sequence, the figures for `Cc1cc2ncc(Cl)c(=O)n2nc1N1CCC(Oc2ccc3c(c2)OCCO3)CC1` [Compound 31, 3-chloro-7-(4-((2,3-dihydrobenzo[b][1,4]dioxin-6-yl)oxy)piperidin-1-yl)-8-methyl-4H-pyrimido[1,2-b]pyridazin-4-one] were 82% and 32 nM.
On to `Cc1cc2nccc(=O)n2nc1N1CC[C@@H](Oc2ccc3c(c2)OCCO3)C[C@H]1C` (stereo in doubt) [Compound 106, 7-((2R,4R)-4-((2,3-dihydrobenzo[b][1,4]dioxin-6-yl)oxy)-2-methylpiperidin-1-yl)-8-methyl-4H-pyrimido[1,2-b]pyridazin-4-one], for which the maximum response (Emax) at 30 µM worked out at 81% and the EC50 was 818 nM.
In the case of `[2H]C1([2H])Oc2ccc(OC3CCN(c4nn5c(=O)cc(C(F)F)nc5c(C)c4C)CC3)cc2OC1([2H])[2H]` [Compound 9, 2-(Difluoromethyl)-7-(4-((2,3-dihydrobenzo[b][1,4]dioxin-6-yl-2,2,3,3-d4)oxy)piperidin-1-yl)-8,9-dimethyl-4H-pyrimido[1,2-b]pyridazin-4-one], the Emax at 30 µM came to 96% and the half-maximal effective concentration (EC50) turned out to be 28 nM.
The matching figures for `CCc1ccc(OC2CCN(c3nn4c(=O)ccnc4cc3C)CC2)cc1` [Compound 89, 7-(4-(4-ethylphenoxy)piperidin-1-yl)-8-methyl-4H-pyrimido[1,2-b]pyridazin-4-one]: 76% and 503 nM.
Consider `[2H]C1(Oc2ccc3c(c2)OC([2H])([2H])C([2H])([2H])O3)CCN(c2nn3c(=O)cc(C(F)(F)F)nc3c(C)c2C)CC1` [Compound 95, 7-(4-((2,3-dihydrobenzo[b][1,4]dioxin-6-yl-2,2,3,3-d4)oxy)piperidin-1-yl-4-d)-8,9-dimethyl-2-(trifluoromethyl)-4H-pyrimido[1,2-b]pyridazin-4-one], for which the Emax at 30 µM was found to be 87% and the half-maximal effective concentration (EC50) stood at 73 nM.
Taken in the same sequence, the figures for `[2H]C1([2H])Oc2ccc(OC3CCN(c4cc(C)c5nccc(=O)n5n4)CC3)cc2OC1([2H])[2H]` [Compound 22, 7-(4-((2,3-dihydrobenzo[b][1,4]dioxin-6-yl-2,2,3,3-d4)oxy)piperidin-1-yl)-9-methyl-4H-pyrimido[1,2-b]pyridazin-4-one] were 36% and 1800 nM.
The matching figures for `Cc1cc2nccc(=O)n2nc1N1CC[C@@H](Oc2ccc3c(c2)OCCC3)[C@H](F)C1` [Compound 57, 7-((3R,4R)-4-(chroman-7-yloxy)-3-fluoropiperidin-1-yl)-8-methyl-4H-pyrimido[1,2-b]pyridazin-4-one]: 83% and 149 nM.
Regarding `Cc1cc2nccc(=O)n2nc1N1CC[C@@H](Oc2ccc3c(c2)CCOC3)[C@H](F)C1` [Compound 54, 7-((3R,4R)-3-fluoro-4-(isochroman-6-yloxy)piperidin-1-yl)-8-methyl-4H-pyrimido[1,2-b]pyridazin-4-one], the Emax at 30 µM was 89% and the 50% effective concentration (EC50) came to 319 nM.
Taken in the same sequence, the figures for `Cc1ccc(OC2CCN(c3nn4c(=O)cc(C(F)F)nc4c(C)c3C)CC2)cn1` [Compound 78, 2-(difluoromethyl)-8,9-dimethyl-7-(4-((6-methylpyridin-3-yl)oxy)piperidin-1-yl)-4H-pyrimido[1,2-b]pyridazin-4-one] were 95% and 76 nM.
`Cc1c(N2CCC(Oc3ccc4c(c3)OCCO4)CC2)nn2c(=O)ccnc2c1C` [Compound 71, 7-(4-((2,3-dihydrobenzo[b][1,4]dioxin-6-yl)oxy)piperidin-1-yl)-8,9-dimethyl-4H-pyrimido[1,2-b]pyridazin-4-one]: the maximum response (Emax) at 30 µM worked out at 95% and the EC50 turned out to be 21 nM.
With `[2H]C1([2H])Oc2ccc(OC3CCN(c4nn5c(=O)c(C)cnc5cc4C)CC3)cc2OC1([2H])[2H]` [Compound 29, 7-(4-((2,3-dihydrobenzo[b][1,4]dioxin-6-yl-2,2,3,3-d4)oxy)piperidin-1-yl)-3,8-dimethyl-4H-pyrimido[1,2-b]pyridazin-4-one], the Emax at 30 µM turned out to be 80% and the concentration for a half-maximal effect (EC50) is 43 nM.
Taken in the same sequence, the figures for `Cc1cc2nccc(=O)n2nc1N1CC[C@@H](Oc2ccc3c(c2)OCCO3)[C@H](C)C1` (single isomer, unassigned) [Compound 114, 7-((3R,4R) or (3S,4S))-4-((2,3-dihydrobenzo[b][1,4]dioxin-6-yl)oxy)-3-methylpiperidin-1-yl)-8-methyl-4H-pyrimido[1,2-b]pyridazin-4-one] were 102% and 160 nM.
Taken in the same sequence, the figures for `[2H]C1(Oc2ccc3c(c2)OCCO3)CCN(c2nn3c(=O)c(F)c(C)nc3cc2C)CC1` [Compound 50, 7-(4-((2,3-dihydrobenzo[b][1,4]dioxin-6-yl)oxy)piperidin-1-yl-4-d)-3-fluoro-2,8-dimethyl-4H-pyrimido[1,2-b]pyridazin-4-one] were 93% and 9 nM.
Taken in the same sequence, the figures for `[2H]C1([2H])Oc2ccc(O[C@@H]3CCN(c4nn5c(=O)cc(C)nc5cc4C)C[C@H]3F)cc2OC1([2H])[2H]` [Compound 51, 7-((3R,4R)-4-((2,3-dihydrobenzo[b][1,4]dioxin-6-yl-2,2,3,3-d4)oxy)-3-fluoropiperidin-1-yl)-2,8-dimethyl-4H-pyrimido[1,2-b]pyridazin-4-one] were 94% and 16 nM.
Consider `Cc1c(N2CCC(Oc3ccc(F)cc3)CC2)nn2c(=O)ccnc2c1C` [Compound 83, 7-(4-(4-fluorophenoxy)piperidin-1-yl)-8,9-dimethyl-4H-pyrimido[1,2-b]pyridazin-4-one], for which the Emax at 30 µM was 89% and the EC50 is 186 nM.
